Reference: patent publication US20080009418A1, “Selective Inhibitors” (Alchemia LTD., priority 2004, published 2008)

Assays:
[1] = biological target: T1, Human δ-opioid (DOP) (Homo sapiens, UniProt P41143); assay: Radioligand binding, human δ-opioid (DOP) membranes, FlashPlate, [3H]-Bremazocine; conditions: compound at 10 μM; for A1 radioligand binding inhibition: human δ-opioid (DOP) membranes
T1 construct: purchased Perkin Elmer Biosignal
Summary of the method: (§1)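 Cloned human receptor membranes were coated onto FlashPlate wells and incubated with radioligand and compound (added from a 0.5 mM DMSO daughter plate) for 1 hour at room temperature in the dark. Scintillation counting gave percent inhibition, with DMSO defining total and reference ligand defining non-specific binding.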

[2] = biological target: T2, Human κ-Opioid (KOP) (Homo sapiens, UniProt P41145); assay: Radioligand binding, human κ-opioid (KOP) membranes, filtration, [3H]-Diprenorphine; conditions: compound at 10 μM; for A2 radioligand binding inhibition: human κ-opioid (KOP) membranes
T2 construct: purchased Perkin Elmer Biosignal
T2 sequence (P41145 whole entry): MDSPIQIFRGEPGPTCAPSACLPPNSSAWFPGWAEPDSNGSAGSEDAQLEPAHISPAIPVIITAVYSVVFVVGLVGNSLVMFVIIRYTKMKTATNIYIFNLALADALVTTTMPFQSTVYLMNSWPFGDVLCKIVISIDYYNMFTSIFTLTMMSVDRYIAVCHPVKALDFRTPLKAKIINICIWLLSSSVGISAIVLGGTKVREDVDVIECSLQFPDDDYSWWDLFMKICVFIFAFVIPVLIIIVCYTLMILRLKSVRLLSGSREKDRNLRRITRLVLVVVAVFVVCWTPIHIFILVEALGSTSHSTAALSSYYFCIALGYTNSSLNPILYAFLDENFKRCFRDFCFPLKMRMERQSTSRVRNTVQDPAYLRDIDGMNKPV
Summary of the method: (§2)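 Membranes from cloned human receptors were incubated with compound and radioligand for 1 hour at room temperature. Bound ligand was collected on 0.3% PEI-soaked filters, washed with cold 50 mM Tris-HCl pH 7.4, and counted by scintillation. Percent inhibition was computed against DMSO totals and reference-ligand nonspecific wells.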

[3] = biological target: T3, Human Melanocortin (MC3) (Homo sapiens, UniProt P41968); assay: Radioligand binding, human melanocortin MC3 membranes, FlashPlate, [125I]-NDP-αMSH; conditions: compound at 10 μM; for A3 radioligand binding inhibition: human melanocortin MC3 membranes
T3 construct: purchased Perkin Elmer Biosignal
T3 sequence (P41968 whole entry): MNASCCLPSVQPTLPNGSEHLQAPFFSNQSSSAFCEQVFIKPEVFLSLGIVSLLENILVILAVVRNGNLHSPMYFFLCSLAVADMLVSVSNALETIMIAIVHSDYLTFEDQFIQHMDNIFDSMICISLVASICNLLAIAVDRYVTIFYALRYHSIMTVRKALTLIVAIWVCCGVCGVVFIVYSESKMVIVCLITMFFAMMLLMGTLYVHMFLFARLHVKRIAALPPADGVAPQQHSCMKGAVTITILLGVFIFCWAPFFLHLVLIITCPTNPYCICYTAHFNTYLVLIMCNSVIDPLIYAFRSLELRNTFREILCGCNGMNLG
Summary of the method: as §1

[4] = biological target: T4, Human Melanocortin (MC4) (Homo sapiens, UniProt P32245); assay: Radioligand binding, human melanocortin MC4 membranes, FlashPlate, [125I]-NDP-αMSH; conditions: compound at 10 μM; for A4 radioligand binding inhibition: human melanocortin MC4 membranes
T4 construct: purchased Perkin Elmer Biosignal
T4 sequence (P32245 whole entry): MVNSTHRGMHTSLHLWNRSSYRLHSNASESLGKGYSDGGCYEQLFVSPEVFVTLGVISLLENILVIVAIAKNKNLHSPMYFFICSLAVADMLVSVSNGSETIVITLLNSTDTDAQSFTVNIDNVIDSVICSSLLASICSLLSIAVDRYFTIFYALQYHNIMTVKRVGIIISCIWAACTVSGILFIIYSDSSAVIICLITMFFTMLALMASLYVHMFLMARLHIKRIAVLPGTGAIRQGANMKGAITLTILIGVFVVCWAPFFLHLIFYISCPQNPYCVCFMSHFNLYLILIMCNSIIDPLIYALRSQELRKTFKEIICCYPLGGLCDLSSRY
Summary of the method: as §1

[5] = biological target: T5, Human melanocortin (MC5) (Homo sapiens, UniProt P33032); assay: Radioligand binding, human melanocortin MC5 membranes, FlashPlate, [125I]-NDP-αMSH; conditions: compound at 10 μM; for A5 radioligand binding inhibition: human melanocortin MC5 membranes
T5 construct: purchased Perkin Elmer Biosignal
T5 sequence (P33032 whole entry): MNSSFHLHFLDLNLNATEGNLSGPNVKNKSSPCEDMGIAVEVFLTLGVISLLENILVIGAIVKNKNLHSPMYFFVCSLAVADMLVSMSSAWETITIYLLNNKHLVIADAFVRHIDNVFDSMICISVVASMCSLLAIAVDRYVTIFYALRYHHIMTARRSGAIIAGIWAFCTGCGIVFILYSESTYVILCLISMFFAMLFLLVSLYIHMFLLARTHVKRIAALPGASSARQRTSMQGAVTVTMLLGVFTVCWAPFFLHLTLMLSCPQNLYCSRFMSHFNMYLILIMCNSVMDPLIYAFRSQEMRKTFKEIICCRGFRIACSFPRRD
Summary of the method: as §1

[6] = biological target: T6, Human melanin-concentrating hormone (MCH1) (Homo sapiens, UniProt Q99705); assay: Radioligand binding, human melanin-concentrating hormone MCH1 membranes, FlashPlate, [125I]-S36057; conditions: compound at 10 μM; for A6 radioligand binding inhibition: human MCH1 membranes
T6 construct: purchased Perkin Elmer Biosignal
T6 sequence (Q99705 whole entry): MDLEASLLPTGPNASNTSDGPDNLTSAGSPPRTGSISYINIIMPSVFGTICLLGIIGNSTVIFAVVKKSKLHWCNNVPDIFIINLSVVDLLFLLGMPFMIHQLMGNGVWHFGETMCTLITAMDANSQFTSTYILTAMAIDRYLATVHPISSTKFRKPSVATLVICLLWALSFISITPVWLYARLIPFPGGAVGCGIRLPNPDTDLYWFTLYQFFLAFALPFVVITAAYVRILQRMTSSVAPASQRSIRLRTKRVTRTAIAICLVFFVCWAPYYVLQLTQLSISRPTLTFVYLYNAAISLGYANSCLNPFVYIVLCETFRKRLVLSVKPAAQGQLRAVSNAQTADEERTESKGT
Summary of the method: as §1

[7] = biological target: T7, Human μ-opioid (MOP) (Homo sapiens, UniProt P35372); assay: Radioligand binding, human μ-opioid (MOP) membranes, FlashPlate, [3H]-Naloxone; conditions: compound at 10 μM; for A7 radioligand binding inhibition: human μ-opioid (MOP) membranes
T7 construct: purchased Perkin Elmer Biosignal
T7 sequence (P35372 whole entry): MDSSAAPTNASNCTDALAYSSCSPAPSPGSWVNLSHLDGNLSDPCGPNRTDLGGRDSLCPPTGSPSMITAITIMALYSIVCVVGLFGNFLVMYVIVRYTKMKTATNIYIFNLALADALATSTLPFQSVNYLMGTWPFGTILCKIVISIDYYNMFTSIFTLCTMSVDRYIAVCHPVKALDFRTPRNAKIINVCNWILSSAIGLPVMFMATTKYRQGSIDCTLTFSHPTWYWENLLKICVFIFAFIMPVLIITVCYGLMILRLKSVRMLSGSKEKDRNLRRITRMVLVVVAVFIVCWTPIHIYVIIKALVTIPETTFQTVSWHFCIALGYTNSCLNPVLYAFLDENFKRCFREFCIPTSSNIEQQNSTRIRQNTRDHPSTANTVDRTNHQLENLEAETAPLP
Summary of the method: as §1

[8] = biological target: T8, Human neurokinin (NK1) (Homo sapiens, UniProt P25103); assay: Radioligand binding, human neurokinin NK1 membranes, filtration, [125I]-Substance P; conditions: compound at 10 μM; for A8 radioligand binding inhibition: human neurokinin NK1 membranes
T8 construct: purchased Perkin Elmer Biosignal
T8 sequence (P25103 whole entry): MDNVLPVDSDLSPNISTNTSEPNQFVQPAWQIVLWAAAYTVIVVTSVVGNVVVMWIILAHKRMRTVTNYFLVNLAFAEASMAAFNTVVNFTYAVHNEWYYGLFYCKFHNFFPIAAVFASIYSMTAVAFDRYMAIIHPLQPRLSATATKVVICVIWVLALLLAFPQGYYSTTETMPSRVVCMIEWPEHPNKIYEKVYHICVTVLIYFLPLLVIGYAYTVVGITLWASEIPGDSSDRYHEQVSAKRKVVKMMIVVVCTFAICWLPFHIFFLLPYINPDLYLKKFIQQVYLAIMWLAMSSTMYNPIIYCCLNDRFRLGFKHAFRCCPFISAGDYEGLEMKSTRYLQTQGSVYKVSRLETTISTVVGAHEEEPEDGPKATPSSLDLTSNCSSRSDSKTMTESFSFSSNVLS
Summary of the method: as §2

[9] = biological target: T9, Human neuropeptide Y (NPY-Y1) (Homo sapiens, UniProt P25929); assay: Radioligand binding, human neuropeptide Y NPY-Y1 membranes, FlashPlate, [125I]-PYY; conditions: compound at 10 μM; for A9 radioligand binding inhibition: human NPY-Y1 membranes
T9 construct: purchased Perkin Elmer Biosignal
T9 sequence (P25929 1-384): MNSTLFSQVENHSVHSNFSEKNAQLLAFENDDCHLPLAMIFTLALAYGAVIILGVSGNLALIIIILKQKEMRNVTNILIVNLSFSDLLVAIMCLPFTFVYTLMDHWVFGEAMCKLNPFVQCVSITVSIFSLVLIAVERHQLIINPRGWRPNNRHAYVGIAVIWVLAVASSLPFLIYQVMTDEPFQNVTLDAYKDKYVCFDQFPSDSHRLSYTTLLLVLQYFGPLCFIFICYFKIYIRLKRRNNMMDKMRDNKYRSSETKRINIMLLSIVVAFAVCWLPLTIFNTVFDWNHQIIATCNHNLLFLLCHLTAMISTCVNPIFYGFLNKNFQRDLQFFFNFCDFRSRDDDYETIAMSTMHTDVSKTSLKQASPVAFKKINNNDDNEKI
Summary of the method: as §1

[10] = biological target: T10, Human opioid (ORL1) (Homo sapiens, UniProt P41146); assay: Radioligand binding, human opioid ORL1 membranes, FlashPlate, [125I]-Nociceptin; conditions: compound at 10 μM; for A10 radioligand binding inhibition: human ORL1 membranes
T10 construct: purchased Perkin Elmer Biosignal
T10 sequence (P41146 whole entry): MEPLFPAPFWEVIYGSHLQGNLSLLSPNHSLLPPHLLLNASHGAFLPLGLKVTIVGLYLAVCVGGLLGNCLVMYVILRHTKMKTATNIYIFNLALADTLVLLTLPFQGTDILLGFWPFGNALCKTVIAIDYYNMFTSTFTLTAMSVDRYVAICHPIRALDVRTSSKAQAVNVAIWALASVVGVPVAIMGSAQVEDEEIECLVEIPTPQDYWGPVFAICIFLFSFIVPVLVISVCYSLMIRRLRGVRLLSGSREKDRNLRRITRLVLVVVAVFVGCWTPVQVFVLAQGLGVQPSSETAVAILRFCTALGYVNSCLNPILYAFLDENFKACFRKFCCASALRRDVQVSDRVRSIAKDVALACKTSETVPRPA
Summary of the method: as §1

[11] = biological target: T11, Mouse urotensin (mUR2) (Mus musculus, UniProt Q8VIH9); assay: Radioligand binding, mouse urotensin mUR2 membranes, FlashPlate, [125I]-Urotensin II; conditions: compound at 10 μM; for A11 radioligand binding inhibition: mouse urotensin mUR2 membranes
T11 construct: purchased Perkin Elmer Biosignal
T11 sequence (Q8VIH9 1-385): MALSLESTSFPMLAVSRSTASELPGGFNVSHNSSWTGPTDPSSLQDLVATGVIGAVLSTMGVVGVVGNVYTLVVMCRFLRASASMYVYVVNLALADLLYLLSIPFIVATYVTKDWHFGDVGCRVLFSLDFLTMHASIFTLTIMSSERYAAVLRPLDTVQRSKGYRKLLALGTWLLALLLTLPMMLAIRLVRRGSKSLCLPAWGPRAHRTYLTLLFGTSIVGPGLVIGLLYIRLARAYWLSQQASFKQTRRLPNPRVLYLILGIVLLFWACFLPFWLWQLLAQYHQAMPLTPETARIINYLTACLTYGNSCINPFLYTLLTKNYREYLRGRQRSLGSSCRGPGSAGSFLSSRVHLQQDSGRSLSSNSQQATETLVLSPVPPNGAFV
Summary of the method: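 Cloned mouse urotensin (mUR2) receptor membranes from Perkin Elmer Biosignal were immobilized in FlashPlate microplates using a proprietary coating. Each well got 19.5 μl buffer, then 0.5 μl of DMSO, reference ligand, or compound. Adding 5 μl of [125I]-Urotensin II, diluted to 5× final concentration in binding buffer, started binding. Plates were sealed with TopSeal-A and incubated 1 hour at room temperature in the dark. Wells were counted for 30 seconds each on a TopCount after a 60-second delay, and percentage inhibition was calculated.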

T1 sequence (P41143 whole entry): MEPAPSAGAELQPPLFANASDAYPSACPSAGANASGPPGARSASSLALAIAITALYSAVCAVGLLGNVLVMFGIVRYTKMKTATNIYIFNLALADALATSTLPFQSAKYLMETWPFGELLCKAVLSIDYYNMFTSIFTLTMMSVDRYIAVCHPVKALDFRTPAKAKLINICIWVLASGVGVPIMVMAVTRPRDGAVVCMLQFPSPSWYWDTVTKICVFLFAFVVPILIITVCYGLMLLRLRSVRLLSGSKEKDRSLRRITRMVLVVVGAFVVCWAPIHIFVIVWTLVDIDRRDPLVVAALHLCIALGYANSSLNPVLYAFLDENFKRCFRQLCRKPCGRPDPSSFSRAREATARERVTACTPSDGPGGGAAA

## COCC1OC(OCc2ccc3ccccc3c2)C(NC(=O)CN)C(OCc2ccc3ccccc3c2)C1O (stereo not shown) [compound 246]
[1]; [3H]-Bremazocine, FlashPlate
  A1: inhibition of radioligand binding: − (“−” indicates less than 50% inhibition at 10 μM)
[2]; [3H]-Diprenorphine, filtration
  A2: inhibition of radioligand binding: − (“−” indicates less than 50% inhibition at 10 μM)
[3]; [125I]-NDP-αMSH, FlashPlate
  A3: inhibition of radioligand binding: − (“−” indicates less than 50% inhibition at 10 μM)
[4]; [125I]-NDP-αMSH, FlashPlate
  A4: inhibition of radioligand binding: − (“−” indicates less than 50% inhibition at 10 μM)
[5]; [125I]-NDP-αMSH, FlashPlate
  A5: inhibition of radioligand binding: − (“−” indicates less than 50% inhibition at 10 μM)
[6]; [125I]-S36057, FlashPlate
  A6: inhibition of radioligand binding: − (“−” indicates less than 50% inhibition at 10 μM)
[7]; [3H]-Naloxone, FlashPlate
  A7: inhibition of radioligand binding: − (“−” indicates less than 50% inhibition at 10 μM)
[8]; [125I]-Substance P, filtration
  A8: inhibition of radioligand binding: + (“+” indicates greater than 50% inhibition at 10 μM)
[9]; [125I]-PYY, FlashPlate
  A9: inhibition of radioligand binding: − (“−” indicates less than 50% inhibition at 10 μM)
[10]; [125I]-Nociceptin, FlashPlate
  A10: inhibition of radioligand binding: − (“−” indicates less than 50% inhibition at 10 μM)
[11]; [125I]-Urotensin II, FlashPlate
  A11: inhibition of radioligand binding: − (“−” indicates less than 50% inhibition at 10 μM)

## COC[C@H]1OC(OCc2cccc(O)c2)[C@H](NC(=O)CCCNC(=N)N)[C@@H](OCc2ccc(-c3ccccc3)cc2)[C@@H]1O (stereo partly shown) [compound 144]
[1]; [3H]-Bremazocine
  A1 radioligand binding, percentage inhibition: − (“−” indicates less than 50% inhibition at 10 μM)
[2]; [3H]-Diprenorphine
  A2 radioligand binding, percentage inhibition: − (“−” indicates less than 50% inhibition at 10 μM)
[3]; [125I]-NDP-αMSH
  A3 radioligand binding, percentage inhibition: − (“−” indicates less than 50% inhibition at 10 μM)
[4]; [125I]-NDP-αMSH
  A4 radioligand binding, percentage inhibition: − (“−” indicates less than 50% inhibition at 10 μM)
[5]; [125I]-NDP-αMSH
  A5 radioligand binding, percentage inhibition: + (“+” indicates greater than 50% inhibition at 10 μM)
[6]; [125I]-S36057
  A6 radioligand binding, percentage inhibition: + (“+” indicates greater than 50% inhibition at 10 μM)
[7]; [3H]-Naloxone
  A7 radioligand binding, percentage inhibition: + (“+” indicates greater than 50% inhibition at 10 μM)
[8]; [125I]-Substance P
  A8 radioligand binding, percentage inhibition: + (“+” indicates greater than 50% inhibition at 10 μM)
[9]; [125I]-PYY
  A9 radioligand binding, percentage inhibition: − (“−” indicates less than 50% inhibition at 10 μM)
[10]; [125I]-Nociceptin
  A10 radioligand binding, percentage inhibition: − (“−” indicates less than 50% inhibition at 10 μM)
[11]; [125I]-Urotensin II
  A11 radioligand binding, percentage inhibition: − (“−” indicates less than 50% inhibition at 10 μM)

## COC[C@H]1OC(OCCc2ccccc2)[C@H](NC(=O)CCCN)[C@@H](OCc2ccccc2)[C@@H]1O (stereo partly shown) [compound 47]
[1]
  A1 radioligand binding inhibition: − (“−” indicates less than 50% inhibition at 10 μM)
[2]
  A2 radioligand binding inhibition: − (“−” indicates less than 50% inhibition at 10 μM)
[3]
  A3 radioligand binding inhibition: − (“−” indicates less than 50% inhibition at 10 μM)
[4]
  A4 radioligand binding inhibition: − (“−” indicates less than 50% inhibition at 10 μM)
[5]
  A5 radioligand binding inhibition: − (“−” indicates less than 50% inhibition at 10 μM)
[6]
  A6 radioligand binding inhibition: − (“−” indicates less than 50% inhibition at 10 μM)
[7]
  A7 radioligand binding inhibition: − (“−” indicates less than 50% inhibition at 10 μM)
[8]
  A8 radioligand binding inhibition: + (“+” indicates greater than 50% inhibition at 10 μM)
[9]
  A9 radioligand binding inhibition: − (“−” indicates less than 50% inhibition at 10 μM)
[10]
  A10 radioligand binding inhibition: − (“−” indicates less than 50% inhibition at 10 μM)
[11]
  A11 radioligand binding inhibition: − (“−” indicates less than 50% inhibition at 10 μM)

## CC(=O)N[C@H]1C(NC(=O)CCN)O[C@H](CO)[C@@H](O)[C@@H]1OCc1cccc2ccccc12 (stereo partly shown) [compound 356]
[1]; [3H]-Bremazocine
  A1: inhibition of radioligand binding, human δ-opioid (DOP): − (“−” indicates less than 50% inhibition at 10 μM)
[2]; [3H]-Diprenorphine
  A2: inhibition of radioligand binding, human κ-opioid (KOP): − (“−” indicates less than 50% inhibition at 10 μM)
[3]; [125I]-NDP-αMSH
  A3: inhibition of radioligand binding, human melanocortin (MC3): − (“−” indicates less than 50% inhibition at 10 μM)
[4]; [125I]-NDP-αMSH
  A4: inhibition of radioligand binding, human melanocortin (MC4): − (“−” indicates less than 50% inhibition at 10 μM)
[5]; [125I]-NDP-αMSH
  A5: inhibition of radioligand binding, human melanocortin (MC5): − (“−” indicates less than 50% inhibition at 10 μM)
[6]; [125I]-S36057
  A6: inhibition of radioligand binding, human melanin-concentrating hormone (MCH1): − (“−” indicates less than 50% inhibition at 10 μM)
[7]; [3H]-Naloxone
  A7: inhibition of radioligand binding, human μ-opioid (MOP): − (“−” indicates less than 50% inhibition at 10 μM)
[8]; [125I]-Substance P
  A8: inhibition of radioligand binding, human neurokinin (NK1): − (“−” indicates less than 50% inhibition at 10 μM)
[9]; [125I]-PYY
  A9: inhibition of radioligand binding, human neuropeptide Y (NPY-Y1): + (“+” indicates greater than 50% inhibition at 10 μM)
[10]; [125I]-Nociceptin
  A10: inhibition of radioligand binding, human opioid (ORL1): − (“−” indicates less than 50% inhibition at 10 μM)
[11]; [125I]-Urotensin II
  A11: inhibition of radioligand binding, mouse urotensin (mUR2): − (“−” indicates less than 50% inhibition at 10 μM)

## COC[C@H]1OC(OCCc2ccccc2)[C@H](NC(=O)CCNC(=N)N)[C@@H](OCc2ccc(Cl)cc2)[C@@H]1O (stereo partly shown) [compound 49]
[1]
  A1 radioligand binding inhibition: − (“−” indicates less than 50% inhibition at 10 μM)
[2]
  A2 radioligand binding inhibition: − (“−” indicates less than 50% inhibition at 10 μM)
[3]
  A3 radioligand binding inhibition: − (“−” indicates less than 50% inhibition at 10 μM)
[4]
  A4 radioligand binding inhibition: + (“+” indicates greater than 50% inhibition at 10 μM)
[5]
  A5 radioligand binding inhibition: − (“−” indicates less than 50% inhibition at 10 μM)
[6]
  A6 radioligand binding inhibition: − (“−” indicates less than 50% inhibition at 10 μM)
[7]
  A7 radioligand binding inhibition: − (“−” indicates less than 50% inhibition at 10 μM)
[8]
  A8 radioligand binding inhibition: + (“+” indicates greater than 50% inhibition at 10 μM)
[9]
  A9 radioligand binding inhibition: − (“−” indicates less than 50% inhibition at 10 μM)
[10]
  A10 radioligand binding inhibition: − (“−” indicates less than 50% inhibition at 10 μM)
[11]
  A11 radioligand binding inhibition: − (“−” indicates less than 50% inhibition at 10 μM)
